Measured values from ChEMBL document CHEMBL1671662, “In vitro activities of telavancin and six comparator agents against anaerobic bacterial isolates” (2009).

How the values were obtained:
Format in all cases: functional
Clostridium sp. = assay: Antibacterial activity against Clostridium sp. by CLSI M11-A6 agar dilution method
Clostridium beijerinckii = assay: Antibacterial activity against Clostridium beijerinckii by CLSI M11-A6 agar dilution method
Actinomyces naeslundii = assay: Antibacterial activity against Actinomyces naeslundii by CLSI M11-A6 agar dilution method
[1] = system: Peptostreptococcus anaerobius; assay: Antibacterial activity against Peptostreptococcus anaerobius by CLSI M11-A6 agar dilution method
Fusobacterium varium = assay: Antibacterial activity against Fusobacterium varium by CLSI M11-A6 agar dilution method
Prevotella nigrescens = assay: Antibacterial activity against Prevotella nigrescens by CLSI M11-A6 agar dilution method
Clostridium subterminale = assay: Antibacterial activity against Clostridium subterminale by CLSI M11-A6 agar dilution method
[2] = system: Clostridium celerecrescens; assay: Antibacterial activity against Clostridium celerecrescens by CLSI M11-A6 agar dilution method; conditions: Lacrimispora celerecrescens
[3] = system: Paeniclostridium sordellii; assay: Antibacterial activity against Clostridium sordellii by CLSI M11-A6 agar dilution method; conditions: Paraclostridium sordellii
Clostridium leptum = assay: Antibacterial activity against Clostridium leptum by CLSI M11-A6 agar dilution method
Clostridium perfringens = assay: Antibacterial activity against Clostridium perfringens by CLSI M11-A6 agar dilution method
Coriobacterium = assay: Antibacterial activity against […] by CLSI M11-A6 agar dilution method
Bilophila wadsworthia = assay: Antibacterial activity against Bilophila wadsworthia by CLSI M11-A6 agar dilution method
Parvimonas micra = assay: Antibacterial activity against Peptostreptococcus micros by CLSI M11-A6 agar dilution method
[4] = system: Parabacteroides distasonis; assay: Antibacterial activity against Parabacteroides distasonis by CLSI M11-A6 agar dilution method
Ruminococcus sp. = assay: Antibacterial activity against Ruminococcus sp. by CLSI M11-A6 agar dilution method
Odoribacter splanchnicus = assay: Antibacterial activity against Bacteroides splanchnicus by CLSI M11-A6 agar dilution method
[5] = system: Clostridium paraputrificum; assay: Antibacterial activity against Clostridium paraputrificum by CLSI M11-A6 agar dilution method
Blautia luti = assay: Antibacterial activity against Ruminococcus luti by CLSI M11-A6 agar dilution method
Parabacteroides merdae = assay: Antibacterial activity against Parabacteroides merdae by CLSI M11-A6 agar dilution method
[6] = system: Streptococcus intermedius; assay: Antibacterial activity against Streptococcus intermedius by CLSI M11-A6 agar dilution method
Prevotella disiens = assay: Antibacterial activity against Prevotella P disiens by CLSI M11-A6 agar dilution method
Prevotella bivia = assay: Antibacterial activity against Prevotella bivia by CLSI M11-A6 agar dilution method
Blautia producta = assay: Antibacterial activity against Ruminococcus productus by CLSI M11-A6 agar dilution method
Clostridioides difficile = assay: Antibacterial activity against Clostridium difficile by CLSI M11-A6 agar dilution method
[7] = system: Coprobacillus cateniformis; assay: Antibacterial activity against Coprobacillus cateniformis by CLSI M11-A6 agar dilution method
Anaerococcus prevotii = assay: Antibacterial activity against Anaerococcus prevotii by CLSI M11-A6 agar dilution method
[8] = system: Bacteroides thetaiotaomicron; assay: Antibacterial activity against Bacteroides thetaiotaomicron by CLSI M11-A6 agar dilution method
Hoylesella loescheii = assay: Antibacterial activity against Prevotella loescheii by CLSI M11-A6 agar dilution method
Bacteroides ovatus = assay: Antibacterial activity against Bacteroides ovatus by CLSI M11-A6 agar dilution method
Ruminococcus gnavus = assay: Antibacterial activity against Ruminococcus gnavus by CLSI M11-A6 agar dilution method; conditions: Mediterraneibacter gnavus
Clostridium bolteae = assay: Antibacterial activity against Clostridium bolteae by CLSI M11-A6 agar dilution method; conditions: Enterocloster bolteae
[9] = system: Catenibacterium mitsuokai; assay: Antibacterial activity against Catenibacterium mitsuokai by CLSI M11-A6 agar dilution method
[10] = system: Sutterella wadsworthensis; assay: Antibacterial activity against Sutterella wadsworthensis by CLSI M11-A6 agar dilution method
Clostridium butyricum = assay: Antibacterial activity against Clostridium butyricum by CLSI M11-A6 agar dilution method
Collinsella aerofaciens = assay: Antibacterial activity against Colinsella aerofaciens by CLSI M11-A6 agar dilution method
Ruminococcus obeum = assay: Antibacterial activity against Ruminococcus obeum by CLSI M11-A6 agar dilution method; conditions: Blautia obeum
[11] = system: Clostridium sporosphaeroides; assay: Antibacterial activity against Clostridium sporosphaeroides by CLSI M11-A6 agar dilution method; conditions: Faecalispora sporosphaeroides
Prevotella corporis = assay: Antibacterial activity against Prevotella corporis by CLSI M11-A6 agar dilution method
Clostridium glycolicum = assay: Antibacterial activity against Clostridium glycolicum by CLSI M11-A6 agar dilution method; conditions: Terrisporobacter glycolicus
Ruminococcus lactaris = assay: Antibacterial activity against Ruminococcus lactaris by CLSI M11-A6 agar dilution method
Flavonifractor plautii = assay: Antibacterial activity against Clostridium orbiscindens by CLSI M11-A6 agar dilution method
Clostridium hathewayi = assay: Antibacterial activity against Clostridium hathewayi by CLSI M11-A6 agar dilution method; conditions: Hungatella hathewayi

Cc1ncc([N+](=O)[O-])n1CCO [METRONIDAZOLE]
1 µg/mL: MIC90 (Clostridium sp.) | MIC90 (Clostridium beijerinckii) | MIC50 (Actinomyces naeslundii) | MIC90 (Prevotella nigrescens) | MIC90 [2] | MIC90 [3] | MIC90 (Clostridium leptum) | MIC90 (Clostridium perfringens) | MIC50 (Coriobacterium) | MIC50 [4] | MIC90 (Odoribacter splanchnicus) | MIC90 [5] | MIC50 (Parabacteroides merdae) | MIC90 (Prevotella disiens) | MIC90 (Prevotella bivia) | MIC50 [7] | MIC50 [8] | MIC90 [8] | MIC90 (Hoylesella loescheii) | MIC50 (Bacteroides ovatus) | MIC50 [9] | MIC90 (Clostridium butyricum) | MIC50 (Collinsella aerofaciens) | MIC90 [11] | MIC90 (Prevotella corporis) | MIC90 (Clostridium glycolicum) | MIC90 (Flavonifractor plautii)
16 µg/mL: MIC50 [10]
0.25 µg/mL: MIC50 (Clostridium sp.) | MIC50 (Clostridium beijerinckii) | MIC90 (Fusobacterium varium) | MIC90 (Clostridium subterminale) | MIC50 [2] | MIC50 [3] | MIC50 (Clostridium leptum) | MIC90 (Bilophila wadsworthia) | MIC50 (Odoribacter splanchnicus) | MIC50 [5] | MIC90 (Blautia luti) | MIC90 (Blautia producta) | MIC50 (Ruminococcus gnavus) | MIC90 (Ruminococcus gnavus) | MIC90 (Clostridium bolteae) | MIC50 (Clostridium butyricum) | MIC50 [11] | MIC50 (Clostridium glycolicum) | MIC90 (Ruminococcus lactaris) | MIC50 (Flavonifractor plautii) | MIC50 (Clostridium hathewayi)
0.5 µg/mL: MIC50 [1] | MIC50 (Prevotella nigrescens) | MIC50 (Clostridium perfringens) | MIC50 (Parvimonas micra) | MIC50 (Ruminococcus sp.) | MIC50 (Prevotella disiens) | MIC50 (Prevotella bivia) | MIC50 (Clostridioides difficile) | MIC90 (Clostridioides difficile) | MIC50 (Anaerococcus prevotii) | MIC50 (Hoylesella loescheii) | MIC50 (Prevotella corporis) | MIC90 (Clostridium hathewayi)
> 128 µg/mL: MIC90 [6] | MIC90 [10]
≤ 0.12 µg/mL: MIC50 (Fusobacterium varium) | MIC50 (Clostridium subterminale) | MIC50 (Bilophila wadsworthia) | MIC50 (Blautia luti) | MIC50 (Blautia producta) | MIC50 (Clostridium bolteae) | MIC50 (Ruminococcus obeum) | MIC90 (Ruminococcus obeum) | MIC50 (Ruminococcus lactaris)
2 µg/mL: MIC90 [1] | MIC90 (Parvimonas micra) | MIC90 [4] | MIC90 (Ruminococcus sp.) | MIC90 (Parabacteroides merdae) | MIC90 (Anaerococcus prevotii) | MIC90 (Bacteroides ovatus)
128 µg/mL: MIC90 (Actinomyces naeslundii) | MIC90 (Coriobacterium) | MIC50 [6] | MIC90 [7] | MIC90 [9] | MIC90 (Collinsella aerofaciens)

CN[C@H](CC(C)C)C(=O)N[C@H]1C(=O)N[C@@H](CC(N)=O)C(=O)N[C@H]2C(=O)N[C@H]3C(=O)N[C@H](C(=O)N[C@H](C(=O)O)c4cc(O)cc(O)c4-c4cc3ccc4O)[C@H](O)c3ccc(c(Cl)c3)Oc3cc2cc(c3O[C@@H]2O[C@H](CO)[C@@H](O)[C@H](O)[C@H]2O[C@H]2C[C@](C)(N)[C@H](O)[C@H](C)O2)Oc2ccc(cc2Cl)[C@H]1O [VANCOMYCIN]
4 µg/mL: MIC90 (Clostridium sp.) | MIC90 (Clostridium beijerinckii) | MIC90 (Actinomyces naeslundii) | MIC90 [2] | MIC90 [3] | MIC90 (Clostridium leptum) | MIC90 (Coriobacterium) | MIC90 [5] | MIC90 [7] | MIC90 [9] | MIC90 (Clostridium butyricum) | MIC90 (Collinsella aerofaciens) | MIC90 [11] | MIC90 (Clostridium glycolicum) | MIC90 (Flavonifractor plautii)
0.5 µg/mL: MIC50 (Actinomyces naeslundii) | MIC50 [1] | MIC (Clostridium subterminale) | MIC50 (Clostridium subterminale) | MIC (Clostridium perfringens) | MIC50 (Clostridium perfringens) | MIC50 (Coriobacterium) | MIC50 (Parvimonas micra) | MIC50 (Ruminococcus sp.) | MIC50 (Blautia luti) | MIC50 (Blautia producta) | MIC50 [7] | MIC50 (Anaerococcus prevotii) | MIC50 (Ruminococcus gnavus) | MIC50 [9] | MIC50 (Collinsella aerofaciens) | MIC50 (Ruminococcus obeum) | MIC90 (Ruminococcus obeum) | MIC50 (Ruminococcus lactaris)
> 128 µg/mL: MIC (Fusobacterium varium) | MIC50 (Fusobacterium varium) | MIC90 (Fusobacterium varium) | MIC90 (Prevotella nigrescens) | MIC (Bilophila wadsworthia) | MIC50 (Bilophila wadsworthia) | MIC90 (Bilophila wadsworthia) | MIC90 (Odoribacter splanchnicus) | MIC90 (Prevotella disiens) | MIC90 (Prevotella bivia) | MIC50 [8] | MIC90 [8] | MIC90 (Hoylesella loescheii) | MIC [10] | MIC50 [10] | MIC90 [10] | MIC90 (Prevotella corporis)
1 µg/mL: MIC50 (Clostridium sp.) | MIC50 (Clostridium beijerinckii) | MIC90 [1] | MIC90 (Clostridium subterminale) | MIC50 [2] | MIC50 [3] | MIC50 (Clostridium leptum) | MIC90 (Clostridium perfringens) | MIC90 (Parvimonas micra) | MIC90 (Ruminococcus sp.) | MIC50 [5] | MIC90 (Blautia luti) | MIC90 (Blautia producta) | MIC50 (Clostridioides difficile) | MIC90 (Anaerococcus prevotii) | MIC90 (Ruminococcus gnavus) | MIC50 (Clostridium butyricum) | MIC50 [11] | MIC50 (Clostridium glycolicum) | MIC90 (Ruminococcus lactaris) | MIC50 (Flavonifractor plautii) | MIC50 (Clostridium hathewayi) | MIC90 (Clostridium hathewayi)
128 µg/mL: MIC50 [4] | MIC90 [4] | MIC50 (Odoribacter splanchnicus) | MIC50 (Parabacteroides merdae) | MIC90 (Parabacteroides merdae) | MIC50 (Bacteroides ovatus) | MIC90 (Bacteroides ovatus)
32 µg/mL: MIC50 (Prevotella nigrescens) | MIC50 (Prevotella disiens) | MIC50 (Prevotella bivia) | MIC50 (Hoylesella loescheii) | MIC50 (Prevotella corporis)
2 µg/mL: MIC50 [6] | MIC90 [6] | MIC90 (Clostridioides difficile) | MIC50 (Clostridium bolteae) | MIC90 (Clostridium bolteae)

CC(=O)NC[C@H]1CN(c2ccc(N3CCOCC3)c(F)c2)C(=O)O1 [LINEZOLID]
16 µg/mL: MIC90 (Bilophila wadsworthia) | MIC90 (Clostridioides difficile)
> 128 µg/mL: MIC [10] | MIC50 [10] | MIC90 [10]
1 µg/mL: MIC50 (Actinomyces naeslundii) | MIC50 [1] | MIC50 (Fusobacterium varium) | MIC90 (Fusobacterium varium) | MIC50 (Coriobacterium) | MIC50 (Parvimonas micra) | MIC50 (Ruminococcus sp.) | MIC50 [7] | MIC50 (Anaerococcus prevotii) | MIC50 [9] | MIC50 (Collinsella aerofaciens) | MIC (Ruminococcus obeum) | MIC50 (Ruminococcus obeum)
4 µg/mL: MIC90 (Clostridium sp.) | MIC90 (Clostridium beijerinckii) | MIC50 (Clostridium subterminale) | MIC90 (Clostridium subterminale) | MIC90 [2] | MIC90 [3] | MIC90 (Clostridium leptum) | MIC50 (Bilophila wadsworthia) | MIC50 [4] | MIC90 [4] | MIC90 (Odoribacter splanchnicus) | MIC90 [5] | MIC90 (Blautia luti) | MIC50 (Parabacteroides merdae) | MIC90 (Parabacteroides merdae) | MIC90 [6] | MIC90 (Blautia producta) | MIC50 [8] | MIC50 (Bacteroides ovatus) | MIC90 (Bacteroides ovatus) | MIC50 (Clostridium bolteae) | MIC90 (Clostridium bolteae) | MIC90 (Clostridium butyricum) | MIC90 [11] | MIC90 (Clostridium glycolicum) | MIC90 (Ruminococcus lactaris) | MIC90 (Flavonifractor plautii) | MIC90 (Clostridium hathewayi)
8 µg/mL: MIC90 (Actinomyces naeslundii) | MIC90 (Coriobacterium) | MIC90 [7] | MIC90 [8] | MIC90 [9] | MIC90 (Collinsella aerofaciens)
2 µg/mL: MIC50 (Clostridium sp.) | MIC50 (Clostridium beijerinckii) | MIC90 [1] | MIC50 (Prevotella nigrescens) | MIC90 (Prevotella nigrescens) | MIC50 [2] | MIC50 [3] | MIC50 (Clostridium leptum) | MIC50 (Clostridium perfringens) | MIC90 (Clostridium perfringens) | MIC90 (Parvimonas micra) | MIC90 (Ruminococcus sp.) | MIC (Odoribacter splanchnicus) | MIC50 (Odoribacter splanchnicus) | MIC50 [5] | MIC50 (Blautia luti) | MIC50 [6] | MIC50 (Prevotella disiens) | MIC90 (Prevotella disiens) | MIC50 (Prevotella bivia) | MIC90 (Prevotella bivia) | MIC50 (Blautia producta) | MIC50 (Clostridioides difficile) | MIC90 (Anaerococcus prevotii) | MIC50 (Hoylesella loescheii) | MIC90 (Hoylesella loescheii) | MIC50 (Ruminococcus gnavus) | MIC90 (Ruminococcus gnavus) | MIC50 (Clostridium butyricum) | MIC90 (Ruminococcus obeum) | MIC50 [11] | MIC50 (Prevotella corporis) | MIC90 (Prevotella corporis) | MIC50 (Clostridium glycolicum) | MIC50 (Ruminococcus lactaris) | MIC50 (Flavonifractor plautii) | MIC50 (Clostridium hathewayi)
